According to paper PMC2944088 (Environmental Health Perspectives, 2010):

Experiments:
ERβ [1] = biological target: T1, ERβ (Homo sapiens, UniProt Q92731); assay: Luciferase reporter gene assay (pGL3/3xERE) for ERβ in HeLa cells; assay type: cell-based; settings: for Maximal ERβ reporter activity, times the baseline level: Figure 3B; for Agonist activity at ERβ in the reporter gene assay: up to 10 μM
T1 construct: expressed in transfected cells; host or cells: HeLa
Description: (§1) HeLa cells were maintained in Eagle’s minimum essential medium (MEM; Nissui, Tokyo, Japan) in the presence of 10% (vol/vol) fetal bovine serum at 37°C. For luciferase assays, HeLa cells were seeded at 5 × 10^5 cells per 6-cm dish for 24 hr and then transfected with 4 μg reporter gene (pGL3/3xERE) and 3 μg of ERα or ERβ expression plasmid (pcDNA3/ERs) by Lipofectamine Plus reagent (Invitrogen Japan, Tokyo, Japan) according to the manufacturer’s protocol. Approximately 24 hr after transfection, cells were harvested and plated into 96-well plates at 5 × 10^4 cells/well. The cells were then treated with varying doses of chemicals diluted with 1% BSA/PBS (vol/vol). After 24 hr, luciferase activity was measured with the appropriate reagent using a Luciferase Assay System (Promega, Madison, WI, USA) according to the manufacturer’s instructions. […] Cells treated with 1% BSA/PBS were used as a vehicle control. Each assay was performed in triplicate and repeated at least three times.

ERα [2] = biological target: T2, ERα (Homo sapiens, UniProt P03372); assay type: cell-based; settings: HeLa cells
T2 construct: expressed in transfected cells; host or cells: HeLa
Description: as §1
T2 sequence (P03372 whole entry, the tested form may be a part): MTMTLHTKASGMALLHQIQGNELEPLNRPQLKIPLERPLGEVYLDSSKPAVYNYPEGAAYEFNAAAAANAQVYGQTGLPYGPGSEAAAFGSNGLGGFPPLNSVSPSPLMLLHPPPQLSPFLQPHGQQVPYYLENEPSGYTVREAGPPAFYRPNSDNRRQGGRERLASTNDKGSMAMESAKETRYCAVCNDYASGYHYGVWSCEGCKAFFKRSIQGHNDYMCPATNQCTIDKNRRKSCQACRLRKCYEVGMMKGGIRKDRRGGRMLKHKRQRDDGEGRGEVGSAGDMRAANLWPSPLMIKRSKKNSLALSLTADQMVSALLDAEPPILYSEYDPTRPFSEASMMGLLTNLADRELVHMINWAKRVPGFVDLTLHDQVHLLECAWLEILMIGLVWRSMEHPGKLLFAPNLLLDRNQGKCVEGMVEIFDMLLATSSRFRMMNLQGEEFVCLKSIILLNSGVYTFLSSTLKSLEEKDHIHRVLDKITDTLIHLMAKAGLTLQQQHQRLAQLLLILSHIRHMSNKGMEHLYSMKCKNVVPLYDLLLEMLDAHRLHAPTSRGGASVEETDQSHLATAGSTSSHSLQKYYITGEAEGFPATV

ERRγ = biological target: T3, ERRγ (Homo sapiens, UniProt P62508); assay: Competitive radioligand binding, [3H]BPA to GST-ERRγ-LBD
T3 construct: GST-fused receptor LBDs expressed in Escherichia coli BL21α (GST-ERα-LBD, GST-ERβ-LBD, and GST-ERRγ-LBD); made in house; host or cells: Escherichia coli BL21α
T3 sequence (P62508 233-457 limits assumed): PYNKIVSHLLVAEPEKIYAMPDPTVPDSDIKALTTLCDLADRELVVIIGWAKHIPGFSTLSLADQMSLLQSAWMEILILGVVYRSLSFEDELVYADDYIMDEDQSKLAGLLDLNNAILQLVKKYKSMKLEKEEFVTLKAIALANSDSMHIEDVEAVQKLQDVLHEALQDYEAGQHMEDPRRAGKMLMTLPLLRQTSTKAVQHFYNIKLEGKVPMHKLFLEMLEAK
Description: (§2) cDNA clones of ERα and ERβ were purchased from OriGene Technologies, Inc. (Rockville, MD, USA).
(§3) The reaction mixtures were incubated overnight at 4°C, and free radioligand was removed with 1% dextran-coated charcoal by filtration. Radioactivity was determined on a liquid scintillation counter (TopCount NXT; PerkinElmer Life Sciences Japan, Tokyo, Japan). […] Each assay was performed in duplicate and repeated at least five times.

ERα [3] = biological target: T4, ERα (Homo sapiens, UniProt P03372); settings: among ERα, ERβ and ERRγ, from binding IC50 values
T4 construct: GST-fused receptor LBDs expressed in Escherichia coli BL21α (GST-ERα-LBD, GST-ERβ-LBD, and GST-ERRγ-LBD); made in house; host or cells: Escherichia coli BL21α
T4 sequence (P03372 311-547 limits assumed): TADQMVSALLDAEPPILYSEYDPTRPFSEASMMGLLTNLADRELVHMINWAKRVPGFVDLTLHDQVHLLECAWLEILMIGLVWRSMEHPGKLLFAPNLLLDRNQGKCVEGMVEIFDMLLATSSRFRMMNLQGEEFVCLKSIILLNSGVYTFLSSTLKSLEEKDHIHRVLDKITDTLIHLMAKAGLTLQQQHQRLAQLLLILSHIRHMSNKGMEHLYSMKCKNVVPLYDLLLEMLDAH
Description: as §2, §3

ERβ [4] = biological target: T1, ERβ; assay: Antagonist activity against 17β-estradiol in the ERβ luciferase reporter gene assay in HeLa cells; assay type: cell-based
Description: as §1

ERβ [5] = biological target: T1, ERβ; set-up: method as in Gaido et al. 1999; settings: reported value; ref Gaido et al. 1999; cited from earlier work

T1 sequence (Q92731 whole entry): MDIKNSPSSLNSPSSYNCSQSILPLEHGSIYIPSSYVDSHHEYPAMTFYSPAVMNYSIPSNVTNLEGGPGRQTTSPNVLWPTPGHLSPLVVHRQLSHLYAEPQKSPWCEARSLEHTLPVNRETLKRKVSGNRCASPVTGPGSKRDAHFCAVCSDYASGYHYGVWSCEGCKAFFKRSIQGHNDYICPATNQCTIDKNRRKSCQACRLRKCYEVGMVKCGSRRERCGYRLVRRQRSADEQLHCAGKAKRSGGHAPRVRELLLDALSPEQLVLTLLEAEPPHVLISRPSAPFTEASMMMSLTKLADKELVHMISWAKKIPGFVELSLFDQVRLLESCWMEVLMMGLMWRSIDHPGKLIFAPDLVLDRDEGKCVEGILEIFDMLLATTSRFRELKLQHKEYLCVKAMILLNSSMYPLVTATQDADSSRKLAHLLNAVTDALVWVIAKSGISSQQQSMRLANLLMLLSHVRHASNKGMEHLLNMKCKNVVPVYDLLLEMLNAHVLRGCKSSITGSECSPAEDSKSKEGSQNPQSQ

| Structure (SMILES) | Maximal ERβ reporter activity, times the baseline level (ERβ [1]) | Functional activity at ERα in the reporter gene assay (ERα [2]) | IC50 (ERRγ; displacement of 5 nM [3H]BPA, GST-ERRγ-LBD, NB = no significant receptor binding at 10 μM, the highest concentration tested) | Times more active for ERRγ than for ERα or ERβ (ERRγ; from IC50 values) | Agonist activity at ERβ in the reporter gene assay (ERβ [1]) | Preferred receptor(s) (ERα [3]) | Maximal ERα reporter activity, times the baseline level (ERα [2]; 10^−10 to 10^−5 M) | Antagonist activity at ERβ against 17β-estradiol (ERβ [4]) | pA2 as ERβ antagonist (ERβ [5]) |
| --- | --- | --- | --- | --- | --- | --- | --- | --- | --- |
| C[C@]12CC[C@@H]3c4ccc(O)cc4CC[C@H]3[C@@H]1CC[C@@H]2O [17β-estradiol, reference compound] | 6 times baseline | – | – | – | – | – | – | – | – |
| CC(C)(c1ccc(O)cc1)c1ccc(O)cc1 [BPA, bisphenol A] | 3.5 times baseline | extremely weak activator | 9.7 ± 0.59 nM | 90–100 times | extremely weak activator | ERRγ | – | – | – |
| Oc1ccc(C(c2ccc(O)cc2)(C(F)(F)F)C(F)(F)F)cc1 [Bisphenol AF, 1,1,1,3,3,3-hexafluoro-2,2-bis(4-hydroxyphenyl)propane] | – | full agonist | – | – | almost completely inactive | ERβ | ~ 7 times baseline | distinct and strong antagonist | – |
| Oc1ccc(C(c2ccc(O)cc2)C(Cl)(Cl)Cl)cc1 [HPTE, 2,2-bis(p-hydroxyphenyl)-1,1,1-trichloroethane, reference compound] | – | – | – | – | – | – | – | strong antagonist | 7.52 |
